Results published in PMC9177545, “3-oxo-C12:2-HSL, quorum sensing molecule from human intestinal microbiota, inhibits pro-inflammatory pathways in immune cells via bitter taste receptors” (Scientific Reports, 2022).

Legend:
Test in all cases: Bitter taste receptor screening, calcium mobilization in HEK293T cells
Assay type in all cases: cell-based
TAS2R14 = target: T1, TAS2R14 (Homo sapiens, UniProt Q9NYV8); conditions: calcium response F/F0
T1 construct: first 45 amino acids of rat somatostatin type 3 receptor (SSTR3) (N); expressed in transfected cells; host or cells: HEK293T stably expressing chimeric Gα16gust44, transiently co-transfected with the pcDNA4-TAS2R vector and pCMV-GCaMP5G
T1 sequence (Q9NYV8 1-317): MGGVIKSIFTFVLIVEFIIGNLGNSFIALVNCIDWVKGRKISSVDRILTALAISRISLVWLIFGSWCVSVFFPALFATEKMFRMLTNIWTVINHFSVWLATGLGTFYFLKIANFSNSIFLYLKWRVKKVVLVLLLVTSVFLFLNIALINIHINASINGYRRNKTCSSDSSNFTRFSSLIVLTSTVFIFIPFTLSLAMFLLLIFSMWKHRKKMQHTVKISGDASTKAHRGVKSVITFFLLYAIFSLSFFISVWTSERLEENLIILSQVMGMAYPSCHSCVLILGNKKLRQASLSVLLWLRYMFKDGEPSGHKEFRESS
Method: (§1) Bitter taste receptor cDNA were cloned into the pcDNA4 mammalian expression vector (Invitrogen) using full coding receptor sequences reported on UniProt database. The synthetic constructs were codon optimized (Genewiz) and combine the first 45 amino acids of rat somatostatin type 3 receptor at the amino terminus to improve plasma membrane targeting of the receptors in the heterologous system. The FLAG epitope was added to the carboxy terminus without interfering with receptor functionality and can be used for immunocytochemistry. Calcium-mobilization assays were performed using human embryonic kidney cells (HEK293T) stably transfected with chimeric Gα16gust44 protein[78]. Cells were seeded in black, poly-D-lysine coated 96-well plates at a density of 35,000 cells/100 µL in high glucose DMEM supplemented with 10% dialysed fetal bovine serum and 1% penicillin/streptomycin. Twenty-four hours later, the cells were transiently co-transfected using Lipofectamine 2000 (Life Technologies) with one of the TAS2R synthetic optimized vectors or empty expression plasmid, as a negative control, and the pCMV-GCaMP5G construct (Addgene #31788) coding for a genetically encoded calcium indicator[79],[80]. Twenty-four hours after transfection, cells were washed twice with C1 buffer (130 mM NaCl, 5 mM KCl, 10 mM HEPES, 2 mM CaCl2, 5 mM sodium pyruvate, pH7.4). 3-oxo-C12:2-HSL was solved in DMSO and further diluted in C1 buffer. Next, the cells were placed in a fluorometric imaging plate reader (Flexstation® 3, Molecular Devices) and stimulated with automatic injection of increasing concentrations of AHLs. Calcium responses leading to increase in fluorescence were monitored at 510 nm after excitation at 488 nm. Experiments were performed in duplicates and repeated at least four times. The recorded calcium levels of each wells receiving the same stimulus were averaged, response of mock-transfected cells were subtracted from receptor-transfected cells and net signals were normalized to background fluorescence (F/F0, F0 fluorescence light before stimulus application). The resulting dose–response curves of the averaged fluorescent signal amplitudes against the logarithm of the agonist concentration were fitted using Sigma Plot software. For data analysis, the four-parameter logistic equation [f(x) = min + (max − min)/(1 + (x/EC50)nH)] was used to calculate the half-maximal effective concentrations (EC50 values).

TAS2R10 = target: T2, TAS2R10 (Homo sapiens, UniProt Q9NYW0)
T2 construct: first 45 amino acids of rat somatostatin type 3 receptor (SSTR3) (N); expressed in transfected cells; host or cells: HEK293T stably expressing chimeric Gα16gust44, transiently co-transfected with the pcDNA4-TAS2R vector and pCMV-GCaMP5G
T2 sequence (Q9NYW0 1-307): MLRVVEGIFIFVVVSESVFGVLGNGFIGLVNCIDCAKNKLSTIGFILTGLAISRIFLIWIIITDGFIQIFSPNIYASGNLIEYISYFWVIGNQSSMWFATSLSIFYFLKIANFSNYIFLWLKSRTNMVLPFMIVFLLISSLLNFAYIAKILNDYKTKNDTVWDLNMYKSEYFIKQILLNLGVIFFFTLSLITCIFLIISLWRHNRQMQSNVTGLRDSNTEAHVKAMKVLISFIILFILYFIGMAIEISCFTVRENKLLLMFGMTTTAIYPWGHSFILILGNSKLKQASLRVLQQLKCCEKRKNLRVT
Method: as §1

TAS2R38 = target: T3, TAS2R38 (Homo sapiens, UniProt P59533)
T3 construct: first 45 amino acids of rat somatostatin type 3 receptor (SSTR3) (N); expressed in transfected cells; host or cells: HEK293T stably expressing chimeric Gα16gust44, transiently co-transfected with the pcDNA4-TAS2R vector and pCMV-GCaMP5G
T3 sequence (P59533 1-333): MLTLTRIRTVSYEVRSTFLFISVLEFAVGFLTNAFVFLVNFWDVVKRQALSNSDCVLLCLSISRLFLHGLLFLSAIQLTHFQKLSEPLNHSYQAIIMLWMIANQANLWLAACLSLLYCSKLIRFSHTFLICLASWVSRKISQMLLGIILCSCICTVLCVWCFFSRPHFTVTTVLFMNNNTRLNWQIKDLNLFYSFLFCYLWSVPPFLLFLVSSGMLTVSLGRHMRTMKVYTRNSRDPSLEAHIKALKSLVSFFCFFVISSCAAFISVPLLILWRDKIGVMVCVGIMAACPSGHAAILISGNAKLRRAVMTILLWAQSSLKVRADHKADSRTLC
Method: as §1

TAS2R8 = target: T4, TAS2R8 (Homo sapiens, UniProt Q9NYW2)
T4 construct: first 45 amino acids of rat somatostatin type 3 receptor (SSTR3) (N); expressed in transfected cells; host or cells: HEK293T stably expressing chimeric Gα16gust44, transiently co-transfected with the pcDNA4-TAS2R vector and pCMV-GCaMP5G
T4 sequence (Q9NYW2 1-309): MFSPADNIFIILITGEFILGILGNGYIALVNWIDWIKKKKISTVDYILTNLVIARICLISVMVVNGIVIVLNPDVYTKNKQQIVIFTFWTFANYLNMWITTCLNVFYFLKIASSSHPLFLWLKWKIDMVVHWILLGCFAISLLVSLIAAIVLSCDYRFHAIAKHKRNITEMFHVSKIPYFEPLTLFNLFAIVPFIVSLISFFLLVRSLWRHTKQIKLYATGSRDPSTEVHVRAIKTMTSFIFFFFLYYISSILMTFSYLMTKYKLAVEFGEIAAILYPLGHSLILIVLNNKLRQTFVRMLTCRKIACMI
Method: as §1

TAS2R13 = target: T5, TAS2R13 (Homo sapiens, UniProt Q9NYV9)
T5 construct: first 45 amino acids of rat somatostatin type 3 receptor (SSTR3) (N); expressed in transfected cells; host or cells: HEK293T stably expressing chimeric Gα16gust44, transiently co-transfected with the pcDNA4-TAS2R vector and pCMV-GCaMP5G
T5 sequence (Q9NYV9 1-303): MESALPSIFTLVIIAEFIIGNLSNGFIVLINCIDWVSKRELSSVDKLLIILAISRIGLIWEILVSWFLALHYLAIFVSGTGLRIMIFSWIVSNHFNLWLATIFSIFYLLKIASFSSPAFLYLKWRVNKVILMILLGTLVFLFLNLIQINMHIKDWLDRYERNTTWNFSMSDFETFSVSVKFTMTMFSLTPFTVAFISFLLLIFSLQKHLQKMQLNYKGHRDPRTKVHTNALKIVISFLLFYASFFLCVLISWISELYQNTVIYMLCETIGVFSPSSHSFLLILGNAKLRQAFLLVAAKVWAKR
Method: as §1

maximum amplitude (TAS2R14): around 0.45
maximum amplitude (TAS2R10; calcium response F/F0): 0.13 ± 0.03
EC50 (TAS2R10; calcium response, 0–1000 µM): 438 ± 120 µM
maximum amplitude (TAS2R38; calcium response F/F0): 0.05 ± 0.01
EC50 (TAS2R38; calcium response, 0–1000 µM): 476 ± 125 µM
maximum amplitude (TAS2R8; calcium response F/F0): around 0.45
EC50 (TAS2R8; calcium response, 0–1000 µM): 333 ± 27 µM
maximum amplitude (TAS2R13; calcium response F/F0): 0.59 ± 0.03
EC50 (TAS2R13; calcium response, 0–1000 µM): 884 ± 41 µM
Substance: 3-oxo-C12:2-HSL
